{"source": "patent US20230321199A1", "about": "“USES OF PTHrP ANALOGUE IN REDUCING FRACTURE RISK” (Radius Health, Inc., priority 2015, published 2023)", "key": {"[1]": {"system": "postmenopausal women with osteoporosis", "assay": "ACTIVE trial: adverse events", "details": "18-month ACTIVE trial", "protocol": "(§2) Safety evaluations performed in the ACTIVE trial included physical examinations, vital signs, 12-lead electrocardiograms, or ECGs, clinical laboratory tests and monitoring, and recording of adverse events. Specific safety assessments included pre-dose and post-dose (four hours) determination of serum calcium, determination of creatinine clearance, post-dose ECG assessments at selected visits, and assessments of postural hypotension (60 minutes post-dose) at selected clinic visits.\n(§3) The ACTIVE trial also evaluated several potential safety measures, including blood calcium levels, orthostatic hypotension, nausea, dizziness, and injection-site reactions."}, "[2]": {"system": "postmenopausal women with osteoporosis", "details": "in vivo"}, "[3]": {"system": "postmenopausal women with osteoporosis", "details": "in vivo", "remark": "listed apart in the source", "protocol": "as §2, §3"}, "[4]": {"system": "postmenopausal women with osteoporosis", "assay": "Phase 2 dose-finding trial: 24-week BMD by DXA", "format": "in vivo, human", "details": "24 weeks; 20 μg daily SC", "excerpt": "Healthy postmenopausal women between the ages of 55 to 85 (based on a 5-year history of amenorrhea and an elevated serum level of FSH) were enrolled in the study if they met one of the following the following definitions of osteoporosis: • 1) DXA-derived BMD T-score≤−2.5 at the lumbar spine or femoral neck or total hip. • 2) DXA-derived BMD T-score ≤−2.0 with a history of a prior low trauma forearm, humerus, vertebral, sacral, pelvic, hip, femoral, or tibial fracture within the past five years. • 3) DXA-derived BMD T-score ≤−2.0 with an additional osteoporosis risk factor such as age >65 years or strong maternal history of osteoporosis (defined as a fracture related to osteoporosis or osteoporosis itself determined by BMD criteria).\nDual X-ray absorptiometry: DXA scans were obtained at each local site and then sent to a central imaging reader (BioClinica Inc. Newton, PA) where they underwent a quality control review and then analyzed according to each manufacturers guidelines. Scans performed during the treatment period on the same instrument used for the baseline scan were acquired. Each study site performed Instrument Quality Control over time (instrument standardization and phantom calibration) that was reviewed by the central reader."}, "[5]": {"system": "postmenopausal women with osteoporosis", "assay": "ACTIVE phase 3 trial: fracture rates and fracture risk over 18 months", "format": "in vivo, human", "method": "The ACTIVE phase 3 fracture prevention trial was conducted for abaloparatide in postmenopausal women with osteoporosis who were otherwise healthy. The enrolled subjects were treated with 80 micrograms (μg) of abaloparatide, a matching placebo, or the approved daily dose of 20 μg of teriparatide for 18 months. The ACTIVE trial evaluated fracture rates, fracture risks, BMD, and bone turnover biomarkers (e.g., CTX and P1NP) in all patient groups.\nFracture risk reduction and hazard ratio (HR) were derived from Kaplan-Meier (KM) curve.\nThe ACTIVE pivotal Phase 3 fracture prevention trial for the PTHrP analogue abaloparatide, Study BA058-05-003 (see ClinicalTrials.gov), was a randomized, double-blind, placebo-controlled trial in postmenopausal osteoporotic women randomized to receive daily doses of one of the following for 18 months: 80 micrograms (μg) of abaloparatide; a matching placebo; or the approved daily dose of 20 μg of teriparatide. Treatment with abaloparatide at a daily dose of 80 μg or placebo remained blinded to all parties throughout the study. Teriparatide used was a proprietary prefilled drug and device combination that could not be repackaged. Therefore, its identity could not be blinded to treating physicians and patients once use began. Study medication was self-administered daily by subcutaneous injection for a maximum of 18 months. All enrolled patients also received calcium and vitamin D supplementation from the time of enrollment until the end of the treatment period. It was recommended to patients that they also continue these supplements through the one-month follow-up period.\nThe study enrolled otherwise healthy ambulatory women aged 49 to 86 (inclusive) who had been postmenopausal for at least five years, met the study entry criteria, and had provided written informed consent. […] All patients were to be in good general health as determined by medical history, physical examination (including vital signs), and clinical laboratory testing. This study population contained a patient population reflective of the type of severe osteoporosis patients that specialists would be expected to treat in their practices.\n(§1) As set forth in the ACTIVE protocol, the primary efficacy endpoint was the number of patients treated with abaloparatide with incident vertebral fractures at the end of treatment as compared to those who received placebo. The pre-specified secondary efficacy parameters included, among other endpoints, reduction in the incidence/risk of non-vertebral fractures; changes in BMD of the spine, hip, and femoral neck from baseline to end of treatment as assessed by DXA and as compared to teriparatide; and the number of hypercalcemic events in abaloparatide treated patients when compared to teriparatide at end of treatment."}, "[6]": {"system": "postmenopausal women with osteoporosis", "assay": "Phase 2 trial: safety, serum calcium, antibody formation", "details": "24 weeks; 20 μg daily SC"}, "[7]": {"system": "postmenopausal women with osteoporosis", "assay": "Phase 2 trial 24-week extension (48 weeks): BMD and tolerability", "details": "20 μg daily SC"}, "[8]": {"system": "postmenopausal women with osteoporosis", "assay": "ACTIVE trial: BMD of lumbar spine, total hip, femoral neck by DXA", "format": "in vivo, human", "method": "BMD and bone turnover biomarkers (CTX and P1NP) were also evaluated in all patient groups to compare the effects of abaloparatide versus teriparatide.\nas §1\nComparative analyses of abaloparatide versus teriparatide were completed on the following BMD secondary endpoints using a Mixed-Effect Model for Repeated Measures (MMRM) method, shown in Table 4 below:\nComparative analyses of the PTHrP analogues abaloparatide and teriparatide were completed on the following BMD secondary endpoints using an ANCOVA approach, shown in Table 5 below: […]"}}, "note": "Like-named read-outs stand apart in the source and are kept apart here. Marks after values point to notes of the source that are not given here.", "data": [{"smiles": "CC[C@H](C)[C@H](NC(=O)[C@H](CO)NC(=O)[C@H](CCCCN)NC(=O)CNC(=O)[C@H](CCCCN)NC(=O)[C@H](CC(=O)O)NC(=O)[C@H](Cc1cnc[nH]1)NC(=O)[C@H](CC(C)C)NC(=O)[C@H](CC(C)C)NC(=O)[C@H](CCC(N)=O)NC(=O)[C@H](Cc1cnc[nH]1)NC(=O)[C@H](CCC(=O)O)NC(=O)[C@H](CO)NC(=O)[C@@H](NC(=O)[C@H](C)N)C(C)C)C(=O)N[C@@H](CCC(N)=O)C(=O)N[C@@H](CC(=O)O)C(=O)N[C@@H](CC(C)C)C(=O)N[C@@H](CCCNC(=N)N)C(=O)N[C@@H](CCCNC(=N)N)C(=O)N[C@@H](CCCNC(=N)N)C(=O)N[C@@H](CCC(=O)O)C(=O)N[C@@H](CC(C)C)C(=O)N[C@@H](CC(C)C)C(=O)N[C@@H](CCC(=O)O)C(=O)N[C@@H](CCCCN)C(=O)N[C@@H](CC(C)C)C(=O)N[C@@H](CC(C)C)C(=O)NC(C)(C)C(=O)N[C@@H](CCCCN)C(=O)N[C@@H](CC(C)C)C(=O)N[C@@H](Cc1cnc[nH]1)C(=O)N[C@H](C(=O)N[C@@H](C)C(N)=O)[C@@H](C)O", "note": "[abaloparatide, [Glu^22,25, Leu^23,28,31, Aib^29, Lys^26,30]hpTHrP(1-34)NH2]", "values": [{"measurement": "AE: Influenza", "setting": "[1]", "result": 6.3, "unit": "%"}, {"measurement": "anti-abaloparatide antibody titer in positive patients", "setting": "[2]", "result": "≤ 1:20"}, {"measurement": "AE: Arthralgia", "setting": "[3]", "result": 8.6, "unit": "%"}, {"measurement": "AE: Back Pain", "setting": "[3]", "result": 8.5, "unit": "%"}, {"measurement": "AE: Constipation", "setting": "[3]", "result": 4.5, "unit": "%"}, {"measurement": "AE: Dizziness", "setting": "[3]", "result": 10.0, "unit": "%‡"}, {"measurement": "AE: Headache", "setting": "[3]", "result": 7.5, "unit": "%"}, {"measurement": "AE: Hypercalcemia (serum albumin-corrected calcium value ≥ 10.7 mg/dL)", "setting": "[3]", "result": 3.41, "unit": "%^†"}, {"measurement": "AE: Hypertension", "setting": "[3]", "result": 7.2, "unit": "%"}, {"measurement": "AE: Nasopharyngitis", "setting": "[3]", "result": 5.8, "unit": "%"}, {"measurement": "AE: Nausea", "setting": "[3]", "result": 8.3, "unit": "%‡"}, {"measurement": "AE: Pain in extremity", "setting": "[3]", "result": 4.9, "unit": "%"}, {"measurement": "AE: Palpitations", "setting": "[3]", "result": 5.1, "unit": "%‡"}, {"measurement": "AE: Upper respiratory tract infection", "setting": "[3]", "result": 8.3, "unit": "%"}, {"measurement": "AE: Urinary tract infection", "setting": "[3]", "result": 5.2, "unit": "%"}]}, {"smiles": "CC[C@H](C)[C@H](NC(=O)[C@H](CCC(=O)O)NC(=O)[C@H](CO)NC(=O)[C@@H](NC(=O)[C@@H](N)CO)C(C)C)C(=O)N[C@@H](CCC(N)=O)C(=O)N[C@@H](CC(C)C)C(=O)N[C@@H](CCSC)C(=O)N[C@@H](Cc1cnc[nH]1)C(=O)N[C@@H](CC(N)=O)C(=O)N[C@@H](CC(C)C)C(=O)NCC(=O)N[C@@H](CCCCN)C(=O)N[C@@H](Cc1cnc[nH]1)C(=O)N[C@@H](CC(C)C)C(=O)N[C@@H](CC(N)=O)C(=O)N[C@@H](CO)C(=O)N[C@@H](CCSC)C(=O)N[C@@H](CCC(=O)O)C(=O)N[C@@H](CCCN=C(N)N)C(=O)N[C@H](C(=O)N[C@@H](CCC(=O)O)C(=O)N[C@@H](Cc1c[nH]c2ccccc12)C(=O)N[C@@H](CC(C)C)C(=O)N[C@@H](CCCN=C(N)N)C(=O)N[C@@H](CCCCN)C(=O)N[C@@H](CCCCN)C(=O)N[C@@H](CC(C)C)C(=O)N[C@@H](CCC(N)=O)C(=O)N[C@@H](CC(=O)O)C(=O)N[C@H](C(=O)N[C@@H](Cc1cnc[nH]1)C(=O)N[C@@H](CC(N)=O)C(=O)N[C@@H](Cc1ccccc1)C(=O)O)C(C)C)C(C)C", "note": "[teriparatide, hPTH(1-34)]", "values": [{"measurement": "femoral neck BMD increase (±SD)", "setting": "[4]", "result": "1.1±4.6", "unit": "%"}, {"measurement": "total hip BMD increase (±SD)", "setting": "[4]", "result": "0.5±3.9", "unit": "%"}, {"measurement": "hazard ratio, incident clinical fractures, as compared to placebo", "setting": "[5]", "result": 0.71}, {"measurement": "hazard ratio, non-vertebral fractures, as compared to placebo", "setting": "[5]", "result": 0.72}, {"measurement": "fracture rate, non-vertebral fractures (rate given with hazard ratio)", "setting": "[5]; placebo group 4.7%", "result": 3.3, "unit": "%"}, {"measurement": "fracture rate, incident clinical fractures (rate given with hazard ratio)", "setting": "[5]; placebo group 8.3%", "result": 4.8, "unit": "%"}, {"measurement": "AE: Arthralgia", "setting": "[1]", "result": 8.6, "unit": "%"}, {"measurement": "AE: Back Pain", "setting": "[1]", "result": 7.2, "unit": "%‡"}, {"measurement": "AE: Constipation", "setting": "[1]", "result": 4.2, "unit": "%"}, {"measurement": "AE: Dizziness", "setting": "[1]", "result": 7.3, "unit": "%"}, {"measurement": "AE: Headache", "setting": "[1]", "result": 6.2, "unit": "%"}, {"measurement": "AE: Hypercalciuria", "setting": "[1]", "result": 12.5, "unit": "%‡"}, {"measurement": "AE: Hypertension", "setting": "[1]", "result": 5.0, "unit": "%"}, {"measurement": "AE: Influenza", "setting": "[1]", "result": 4.2, "unit": "%"}, {"measurement": "AE: Nasopharyngitis", "setting": "[1]", "result": 6.5, "unit": "%"}, {"measurement": "AE: Nausea", "setting": "[1]", "result": 5.1, "unit": "%‡"}, {"measurement": "AE: Pain in extremity", "setting": "[1]", "result": 5.1, "unit": "%"}, {"measurement": "AE: Palpitations", "setting": "[1]", "result": 1.6, "unit": "%‡"}, {"measurement": "AE: Upper respiratory tract infection", "setting": "[1]", "result": 8.9, "unit": "%"}, {"measurement": "AE: Urinary tract infection", "setting": "[1]", "result": 5.0, "unit": "%"}, {"measurement": "incidence of dizziness", "setting": "[6]", "result": 4, "unit": "%"}, {"measurement": "femoral neck BMD increase", "setting": "[7]; 48 weeks", "result": 2.2, "unit": "%"}, {"measurement": "lumbar spine BMD increase", "setting": "[7]; 48 weeks", "result": 8.6, "unit": "%"}, {"measurement": "total hip BMD increase", "setting": "[7]; 48 weeks", "result": 1.3, "unit": "%"}, {"measurement": "treatment-related TEAEs", "setting": "[7]; extension study", "result": 21, "unit": "%"}, {"measurement": "Mean Percent Change In BMD From Baseline (ANCOVA), Femoral Neck", "setting": "[8]; 6 mo", "result": 0.80, "unit": "%*"}, {"measurement": "Mean Percent Change in BMD From Baseline (MMRM), Femoral Neck", "setting": "[8]; 6 mo", "result": 0.87, "unit": "%*"}, {"measurement": "Mean Percent Change In BMD From Baseline (ANCOVA), Lumbar Spine", "setting": "[8]; 12 mo", "result": 7.40, "unit": "%*"}, {"measurement": "subjects with BMD increases of >3% at all three sites", "setting": "[8]; 12 months", "result": 19.8, "unit": "%"}, {"measurement": "subjects with BMD increases of >3% at all three sites", "setting": "[8]; 18 months", "result": 32.0, "unit": "%"}, {"measurement": "subjects with increased BMD of >3% at all three sites (lumbar spine, total hip, femoral neck)", "setting": "[8]; month 6", "result": 6.5, "unit": "%"}]}]}
